Holding throughout (type): cell-based
One assay has as its system U87MG MTAP(-/-) cells. As to the kind of experiment: Inhibition of proliferation of U87MG MTAP(-/-) cells (CellTiter-Glo). The conditions noted are these: cell proliferation, 6 days. The protocol:
Test 7: Assay for Inhibitory Activity of Compounds against U87MG MTAP(-/-) Cell Proliferation
Materials and Cells: The U87MG MTAP(-/-) cell line was purchased from ATCC (USA). Cell culture media, fetal bovine serum (FBS), and penicillin-streptomycin were purchased from Thermo Fisher Scientific (USA). 384-well plates were purchased from PerkinElmer (USA). The CellTiter-Glo assay kit was purchased from Promega (USA).
Cell Culture: U87MG MTAP(-/-) cells were cultured in a medium supplemented with 10% fetal bovine serum (FBS) and 1% penicillin-streptomycin at 37°C with 5% CO2. Only cells in the logarithmic growth phase were used for experiments.
Cell Proliferation Inhibition Assay: The antiproliferative activity of the compounds against U87MG MTAP(-/-) cells was assessed using the CellTiter-Glo assay kit. Cell suspensions were adjusted to the appropriate density and seeded into 384-well plates at a volume of 40 µL per well, then incubated overnight at 37°C with 5% CO2. Compounds (40 nL) were added to each well to achieve final concentrations ranging from 0 to 10,000 nM (starting concentration 10,000 nM, 3-fold serial dilutions, 10 dose points), with a final DMSO concentration of […]. The cell plates were incubated at 37°C with 5% CO2 for 6 days. Subsequently, 40 µL of CellTiter-Glo reagent was added to measure cell viability. Paclitaxel was used as a control compound.
On the technique in general: Cellular ATP, detected with luciferase, serves as a proxy for viable cell number.

Assay [1] concerns HCT-116 MTAP(-/-) deficient cells. Description: Inhibition of proliferation of HCT-116 MTAP(-/-) deficient cells (Cell-Titer Glo). The conditions noted are these: 8 days. The gist of the method: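 Cells in log-phase growth, RPMI-1640 with 10% FBS, seeded and left overnight at 37°C, 5% CO2. Compound tested at 0–10,000 nM (10 points, 3-fold, 0.1% DMSO) for 8 days at 37°C, 5% CO2. Viability read by CellTiter-Glo luminescence.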

The test system of assay [2] is HCT-116 MTAP wild-type cells. As to the kind of experiment: Inhibition of proliferation of HCT-116 MTAP wild-type cells (Cell-Titer Glo). The following applies: 8 days. The gist of the method:
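MTAP wild-type HCT-116 cells were seeded, cultured overnight and then exposed to compound from 10,000 nM down in a 10-point, 3-fold series (0.1% DMSO). Plates were incubated 8 days at 37°C, 5% CO2. Proliferation was read by Cell-Titer Glo viability luminescence.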

Broadly, the IC50 is the concentration needed to halve the response being measured. Read a high IC50 as weaker potency.

Take `C[C@H]1OC[C@@H](N(C)C(=O)c2cc3c(cn2)nc(N)c2cncn23)c2ccc(C(F)(F)F)cc21` (single isomer, unassigned) [Example 98]: the IC50 in the assay on U87MG MTAP(-/-) cells (Homo sapiens, U-87 MG, 144 h) came to 14.2 nM; in assay [1] (Homo sapiens, HCT-116, 192 h), 1.4 nM; in assay [2] (Homo sapiens, HCT-116, 192 h), 114 nM.

On to `Cc1cc(-c2ccc3c(c2)OC[C@H]3N(C)C(=O)c2cc3c(cc2F)nc(N)c2cncn23)on1` [Example 119, (S)-4-amino-7-fluoro-N-methyl-N-(6-(3-methylisoxazol-5-yl)-2,3-dihydrobenzofuran-3-yl)imidazo[1,5-a]qui noxaline-8-carboxamide], for which the IC50 in the assay with U87MG MTAP(-/-) cells (Homo sapiens, U-87 MG, 144 h) amounted to 101 nM; in assay [1] (Homo sapiens, HCT-116, 192 h) it was 13.5 nM; in assay [2] (Homo sapiens, HCT-116, 192 h), 1310 nM.

Consider “(S)-4-amino-N-methyl-N-(6-(trifluoromethyl)-2,3-dihydrobenzofuran-3-yl)imidazo[1,5-a]quinoxaline-8-carboxamide-1-d [Example 78]”, for which the half-inhibitory concentration (IC50) in the assay with U87MG MTAP(-/-) cells was found to be 211 nM; in assay [1], 7.1 nM; in assay [2], 2070 nM.

For the compound `CCN(C(=O)c1cc2c(cc1F)nc(N)c1cncn12)[C@@H]1COc2cc(C(F)(F)F)ccc21` [Example 124, (S)-4-amino-N-ethyl-7-fluoro-N-(6-(trifluor omethyl)-2,3-dihydrobenzofuran-3-yl)imid azo[1,5-a]quinoxaline-8-carboxamide], the IC50 in the assay with U87MG MTAP(-/-) cells (Homo sapiens, U-87 MG, 144 h) turned out to be 64.4 nM; in assay [1] (Homo sapiens, HCT-116, 192 h) it was 6.5 nM; in assay [2] (Homo sapiens, HCT-116, 192 h), 634 nM.

`CN(C(=O)c1ccc2nc(N)c3cncn3c2c1)[C@@H]1COc2cc(OC(F)(F)F)ccc21` [Example 56, (S)-4-amino-N-methy 1-N-(6-(trifluoromethoxy)-2,3-dihydrobenzofuran-3-yl)imidazo[1,5-a]quinoxaline-8-car boxamide]: the IC50 in the assay on U87MG MTAP(-/-) cells (Homo sapiens, U-87 MG, 144 h) stood at 108 nM; in assay [1] (Homo sapiens, HCT-116, 192 h), 15.9 nM; in assay [2] (Homo sapiens, HCT-116, 192 h), 1530 nM.

Take `Cc1ncc2c(N)nc3ccc(C(=O)N(C)[C@@H]4COc5cc(C(F)(F)F)ccc54)cc3n12` [Example 39, (S)-4-amino-N,1-dime thyl-N-(6-(trifluoromethyl)-2,3-dihydrobenzofuran-3-yl)imidazo[1 ,5-a]quinoxaline-8-carboxamide]: the IC50 with U87MG MTAP(-/-) cells (Homo sapiens, U-87 MG, 144 h) came out at 176 nM; in assay [1] (Homo sapiens, HCT-116, 192 h), 15.9 nM; in assay [2] (Homo sapiens, HCT-116, 192 h), 2040 nM.

As for `CN(C(=O)c1ccc2nc(N)c3cncn3c2c1)C1COc2cc(S(F)(F)(F)(F)F)ccc21` (stereo not drawn) [Example 45, 4-amino-N-methyl-N-(6-(pentafluoro-λ^6-sulfaneyl)-2,3-dihydrobenzofuran-3-yl)imidaz o[1,5-a]quinoxaline-8-carboxamide], the concentration for half-maximal inhibition (IC50) worked out at 60.6 nM in the assay on U87MG MTAP(-/-) cells (Homo sapiens, U-87 MG, 144 h); 10.3 nM in assay [1] (Homo sapiens, HCT-116, 192 h); 947 nM in assay [2] (Homo sapiens, HCT-116, 192 h).

`CN(C(=O)c1cc2c(cc1F)nc(N)c1cncn12)[C@@H]1COc2cc(S(C)(=O)=O)ccc21` [Example 38, (S)-4-amino-7-fluoro-N-methyl-N-(6-(methylsulfonyl)-2,3-dihydrobenzofuran-3-yl)imi dazo[1,5-a]quinoxaline-8-carboxamide]: the half-inhibitory concentration (IC50) turned out to be 443 nM in the assay with U87MG MTAP(-/-) cells (Homo sapiens, U-87 MG, 144 h); 30 nM in assay [1] (Homo sapiens, HCT-116, 192 h); 4060 nM in assay [2] (Homo sapiens, HCT-116, 192 h).

For the compound `COc1ccc2c(c1)OC[C@H]2N(C)C(=O)c1cc2c(cc1F)nc(N)c1cncn12` [Example 80, (S)-4-amino-7-fluoro-N-(6-methoxy-2,3-dihydrobenzofuran-3-yl)-N-methylimidazo[1,5-a]quinoxaline-8-carboxamide], the half-inhibitory concentration (IC50) in the assay with U87MG MTAP(-/-) cells (Homo sapiens, U-87 MG, 144 h) worked out at 376 nM; in assay [1] (Homo sapiens, HCT-116, 192 h), 39.3 nM; in assay [2] (Homo sapiens, HCT-116, 192 h), 9170 nM.

Regarding “4-amino-N-methyl-N-(6-(trifluoromethyl)-2, 3-dihydrobenzo[b]thi ophen-3-yl)imidazo[1, 5-a]quinoxaline-8-car boxamide [Example 43]”, the half-maximal inhibitory concentration (IC50) with U87MG MTAP(-/-) cells is 322 nM; in assay [1], 22.4 nM; in assay [2] it was 2990 nM.

Take `CN(C(=O)c1cc2c(cc1F)nc(N)c1cncn12)[C@@H]1COc2cc(-c3ccnn3C)ccc21` [Example 117, (S)-4-amino-7-fluoro-N-methyl-N-(6-(1-methyl-1H-pyrazol-5-yl) -2,3-dihydrobenzofuran-3-yl)imidazo[1,5-a] quinoxaline-8-carbox amide]: the concentration for half-maximal inhibition (IC50) stood at 61.3 nM in the assay on U87MG MTAP(-/-) cells (Homo sapiens, U-87 MG, 144 h); 6.6 nM in assay [1] (Homo sapiens, HCT-116, 192 h); 617 nM in assay [2] (Homo sapiens, HCT-116, 192 h).

Turning to `C[C@H]1OC[C@@H](N(C)C(=O)c2ccc3nc(N)c4cncn4c3c2)c2ccc(F)cc21` (single isomer, unassigned) [Example 96], the IC50 in the assay on U87MG MTAP(-/-) cells (Homo sapiens, U-87 MG, 144 h) is 91.1 nM; in assay [1] (Homo sapiens, HCT-116, 192 h), 6.6 nM; in assay [2] (Homo sapiens, HCT-116, 192 h), 1260 nM.

For `COC(=O)c1ccc2c(c1)OC[C@H]2N(C)C(=O)c1ccc2nc(N)c3cncn3c2c1` [Example 122, methyl (S)-3-(4-amino-N-methylimidazo[1,5-a]quinoxaline-8-carboxamido)-2,3-dihydrobenzofuran-6-carboxylate], the concentration for half-maximal inhibition (IC50) with U87MG MTAP(-/-) cells (Homo sapiens, U-87 MG, 144 h) is 777 nM; in assay [1] (Homo sapiens, HCT-116, 192 h), 50.6 nM; in assay [2] (Homo sapiens, HCT-116, 192 h) it was above 10000 nM.

For the compound `CN(C(=O)c1cc2c(cc1F)nc(N)c1cncn12)[C@@H]1COc2cc(-c3cnn(C(F)(F)F)c3)ccc21` [Example 33, (S)-4-amino-7-fluoro-N-methyl-N-(6-(1-(trifluoromethyl)-1H-pyrazol-4-yl)-2,3-dihydrobenzofuran-3-yl)imid azo[1,5-a]quinoxaline-8-carboxamide], the IC50 in the assay with U87MG MTAP(-/-) cells (Homo sapiens, U-87 MG, 144 h) was 81.7 nM; in assay [1] (Homo sapiens, HCT-116, 192 h), 15.1 nM; in assay [2] (Homo sapiens, HCT-116, 192 h), 2660 nM.

Turning to `CN(C(=O)c1cc2c(cc1C(F)(F)F)nc(N)c1cncn12)[C@@H]1COc2cc(C(F)(F)F)ccc21` [Example 36, (S)-4-amino-N-methy 1-7-(trifluoromethyl)-N-(6-(trifluoromethyl) -2,3-dihydrobenzofuran-3-yl)imidazo[1,5-a] quinoxaline-8-carbox amide], the IC50 came out at 343 nM in the assay with U87MG MTAP(-/-) cells (Homo sapiens, U-87 MG, 144 h); 36 nM in assay [1] (Homo sapiens, HCT-116, 192 h); 5130 nM in assay [2] (Homo sapiens, HCT-116, 192 h).

Take `CC1OC[C@@H](N(C)C(=O)c2ccc3nc(N)c4cncn4c3c2)c2ccc(-c3cnn(C)c3)cc21` (stereo partly drawn) [Example 22, 4-amino-N-methyl-N-((4S)-1-methyl-7-(1-methyl-1H-pyrazol-4-yl)isochroman-4-yl)i midazo[1,5-a]quinoxa line-8-carboxamide]: the concentration for half-maximal inhibition (IC50) was 81.2 nM with U87MG MTAP(-/-) cells (Homo sapiens, U-87 MG, 144 h); 5.1 nM in assay [1] (Homo sapiens, HCT-116, 192 h); 1690 nM in assay [2] (Homo sapiens, HCT-116, 192 h).

As for `C[C@H]1OC[C@@H](N(C)C(=O)c2cc3c(cn2)nc(N)c2cncn23)c2ccc(C(F)(F)F)nc21` [Example 35, 4-amino-N-methyl-N-((5S,8R)-8-methyl-2-(trifluoromethyl)-5,8-dihydro-6H-pyrano[3,4-b]pyridin-5-yl)imida zo[1,5-a]pyrido[3,4-e] pyrazine-8-carboxamide], the IC50 in the assay with U87MG MTAP(-/-) cells (Homo sapiens, U-87 MG, 144 h) turned out to be 34.8 nM; in assay [1] (Homo sapiens, HCT-116, 192 h), 23.2 nM; in assay [2] (Homo sapiens, HCT-116, 192 h), 2230 nM.

As for `Cc1ncc(-c2ccc3c(c2)OC[C@H]3N(C)C(=O)c2cc3c(cc2F)nc(N)c2cncn23)cn1` [Example 40, (S)-4-amino-7-fluoro-N-methyl-N-(6-(2-methylpyrimidin-5-yl)-2,3-dihydrobenzofuran-3-yl)imidazo[1,5-a]qu inoxaline-8-carboxamide], the half-inhibitory concentration (IC50) in the assay on U87MG MTAP(-/-) cells (Homo sapiens, U-87 MG, 144 h) came out at 153 nM; in assay [1] (Homo sapiens, HCT-116, 192 h), 32.1 nM; in assay [2] (Homo sapiens, HCT-116, 192 h), 9200 nM.

As to `CN(C(=O)c1ccc2nc(N)c3cncn3c2c1)[C@@H]1COc2cc(-c3cncc(C(F)(F)F)c3)ccc21` [Example 47, (S)-4-amino-N-methy 1-N-(6-(5-(trifluoromethyl)pyridin-3-yl)-2,3-dihydrobenzofuran-3-yl)imidazo[1,5-a]quin oxaline-8-carboxamide], the half-inhibitory concentration (IC50) in the assay with U87MG MTAP(-/-) cells (Homo sapiens, U-87 MG, 144 h) turned out to be 475 nM; in assay [1] (Homo sapiens, HCT-116, 192 h) it was 17.7 nM; in assay [2] (Homo sapiens, HCT-116, 192 h), 4100 nM.

For the compound `C[C@H]1OC[C@@H](N(C)C(=O)c2ccc3nc(N)c4cncn4c3c2)c2ccc(C(F)(F)F)cc21` (single isomer, unassigned) [Example 106], the 50% inhibitory concentration (IC50) in the assay with U87MG MTAP(-/-) cells (Homo sapiens, U-87 MG, 144 h) is 10 nM; in assay [1] (Homo sapiens, HCT-116, 192 h), 3.5 nM; in assay [2] (Homo sapiens, HCT-116, 192 h), 145 nM.

Source of the values: patent EP4775208A1, “USE OF PRMT5 INHIBITOR IN TREATMENT OF TUMORS OR CANCERS” (Apeiron Therapeutics (Hong Kong) Ltd., priority 2023, dated 2025).
